Row | melting point [°C] | SMILES
1 | 220 to 222 | CS(=O)(=O)Nc1cc(C(c2cc(F)ccc2F)S(=O)(=O)c2ccc(Cl)cc2)c(Cl)cn1 (centres undefined)
2 | 75 to 77 | CC(C)(C)C1=NN=C(N)SC1
3 | 122 to 124 | Cc1nc(-c2ccc(Cl)cc2Cl)sc1C(=O)NCCCCN1CCC(c2ccc3c(c2OCCO)CCCC3)CC1
4 | 44.5 to 46 | CCCCCCCCCCCC(O)CC1COC1=O (centres undefined)
5 | 267 to 269 | O=c1[nH]c(COc2ccc(Cl)cc2)nc2nccnc12
6 | 131 to 132 | CCCOc1cc(CCCOc2c(CC(=O)O)cccc2OC)n(Cc2ccc(Cl)cc2)n1
7 | 98 to 100 | Cc1c(SCCCSCC2CN(C)C(=O)O2)ccnc1CNc1cnc2ccccc2c1 (centres undefined)
8 | 57 | CC(=O)Oc1cc(COC(=O)c2ccccc2)cnc1C
9 | 191 | CCCCc1cn(Cc2ccc(-c3ccccc3C(=O)OC)cc2)c2cc(C(=O)N3CCCC3)ccc2c1=O
10 | 134 to 135 | CCCCCS(=O)(=O)NC(=O)/C=C/c1ccc(OCCOC)cc1Oc1ccc(C(F)(F)F)cc1Cl
11 | 88 to 89 | CCOC(=O)c1cc(C(Br)Br)cnc1Br
12 | 196 | CCC(=O)N[C@H]1CC[C@H](CCN2CCN(c3nccc4c3OCC4)CC2)CC1
13 | 116 to 120 | CSCC(C)NC(=O)c1c(I)cccc1C(=O)Nc1ccc(C2(C(F)(F)F)CC(c3ccc(Cl)cc3)=NO2)cc1C (centres undefined)
14 | 104 to 107 | CC(C)(CNC(=O)CCCC(=O)O)SN=O
15 | 157 to 158 | CC(=NO)c1ccc(Cl)c(S(N)(=O)=O)c1
16 | 152 to 153 | CCc1c(C(=O)c2cc(C)cc(C)c2)n(C/C=C/COC(C)=O)c(=O)[nH]c1=O
17 | 86 to 88 | CCCCCCCCCSCCCN=C=O
18 | 194 to 196 | CONC(=O)Nc1ccc(-c2sc3c(c2CN(C)CCc2ccccn2)c(=O)n(-c2ccccn2)c(=O)n3Cc2c(F)cccc2F)cc1
19 | 87 to 89 | N#CC1OC(=O)c2c(F)ccc(F)c21 (centres undefined)
20 | 264 to 265 | CC1(c2ccc([N+](=O)[O-])cc2)C(=O)Nc2cc(Cl)cc(Cl)c2C1=O (centres undefined)
21 | 200 to 203 | O=Cc1ccc2c(C=O)c[nH]c2c1
22 | 64 to 66 | Clc1cc(N2CCCCCC2)nc(-c2ccccc2)n1
23 | 190 to 191 | CC(C)(C)OC(=O)N1CCN(c2ccc(S(=O)(=O)c3ccccc3)c([N+](=O)[O-])c2)CC1
24 | 127 to 129 | COc1ccc(C2(C(=O)Oc3ccc(C(=O)NO)cc3)CCCCC2)cc1

Row | melting point [°C] | SMILES
25 | > 150 | Nc1ccc2ncnc(Nc3cccc(Cl)c3)c2c1
26 | 109 to 111 | CCOc1ccc(OCC(C)(NS(=O)(=O)Cc2ccccc2)C(=O)N2CCOCC2)cc1 (centres undefined)
27 | 130 to 131 | CC1C(c2ccccc2)OC(=O)N1C(=O)CC1c2ccccc2CCc2ccccc21 (centres undefined)
28 | 148 to 151 | CCOC(=O)C(C(=O)OCC)C(N)c1ccc([N+](=O)[O-])cc1C(N)C(C(=O)OCC)C(=O)OCC (centres undefined)
29 | 304 to 306 | CNC(=O)[C@H]1CN(c2ccc3c(c2)oc(=O)n3C)C(=O)O1
30 | 75 to 77 | CC(=O)OCCCn1nc(-c2cc(C(C)(C)C)c(O)c(C(C)(C)C)c2)c2cccnc21
31 | 160 to 161 | O=C(O)CCC(=NOCc1ccc(OCc2cn3c(-c4ccccc4)cccc3n2)cc1)c1ccccc1
32 | 299 to 304 | Clc1[nH]ncc1-c1csc(Nc2ccccn2)n1
33 | 113 to 114 | O=S(=O)(c1ccc(Cl)cc1)C(c1ccc(CN2CCCCC2)cn1)c1cc(F)ccc1F (centres undefined)
34 | 194 to 196 | COc1cccc(OC)c1CNC(=O)Cc1c(-c2ccccc2C)c2cc(Cl)ccc2oc1=O
35 | 174 to 176 | O=C(NCCc1ccc(O)c(O)c1)C1CC1
36 | 139 to 140 | CC1=C(C)C(=O)N(c2ccc(Cl)c(C=C(Cl)C#N)c2)C1=O
37 | 110 to 111 | CC(C)(C)C1=CC(=CC#N)C=C(C(C)(C)C)C1=O
38 | 228 to 229 | Cc1nc(C)c2c(n1)N(Cc1ccc(-c3ccccc3-c3nnn[nH]3)cc1)C(=O)C2
39 | 222 to 224 | C#CCN1C(=O)COc2cc(F)c(-n3c(=O)oc4c(c3=O)CCC4)cc21
40 | 123 to 125 | CCOC(=O)C(Cl)N=Nc1ccccc1C(=O)c1ccccn1 (centres undefined)
41 | 69 to 71 | CC(C)(C)c1cc(Br)c(O)c(C#N)c1
42 | 239 to 240 | CS(=O)c1cn(-c2c(Cl)cc(C(F)(F)F)cc2Cl)nc1C=NO (centres undefined)
43 | 193 to 195 | CC(=O)N(C)S(=O)(=O)c1cc(-n2c(=O)cc(C(F)(F)F)n(C)c2=O)ccc1Cl
44 | 205 to 206 | CC(C)(C)c1cc(O)n[nH]1
45 | 150 to 151 | CN(C)CCNC(=O)c1ccc(S(N)(=O)=O)cc1
46 | 100 to 102 | O=c1ccsn1Cc1ccc2c(c1)CCO2
47 | 148 to 151 | CC1CCC(Oc2ccc(CC(=O)c3ccc4c(c3)CCC4)cc2)(C(=O)O)C1 (centres undefined)
48 | 78 to 80 | COc1ccc(C=CC(C)=O)cc1OC

Row | melting point [°C] | SMILES
49 | 217 to 219 | Cc1ccnc(C(=O)c2[nH]c3cc(Cl)ccc3c2NC(=O)C(C)(C)O)c1
50 | 90.5 to 91.5 | COc1ccc2c(CCC3CCN(Cc4ccccc4)CC3)noc2c1
51 | 88 to 90 | CCOC(=O)Cc1c(C)n(Cc2cccc(OC)c2)c2ccc(OC)cc12
52 | 164 to 166 | C=CCc1c(O)ccc2oc(C(=O)c3ccc(F)cc3)c(C)c12
53 | 106 to 107 | CN(c1ccc(I)cc1)S(C)(=O)=O
54 | 262 to 264 | Cc1nn(C)c2nc(-c3ccccc3)cc(O)c12
55 | 87 to 88 | CCCCc1cc2cc(NS(C)(=O)=O)ccn2c1C(=O)c1ccc(OCCCN(CCCC)CCCC)cc1
56 | 135 | CCOC(=O)c1c(N2CCN(C(=O)c3cccs3)CC2)c2cnccc2n(Cc2cccc(F)c2)c1=O
57 | 228 to 229 | Cc1cc(Nc2ccc(C(F)(F)F)cc2C(=O)O)n(-c2ccccn2)n1
58 | 165 to 166 | Cc1cc([N+](=O)[O-])ccc1NC(=O)n1nc(Oc2cccc(C(F)(F)F)c2)cc1C
59 | 105 to 107 | CN1C(=O)CNC2=C1C=NC(Cl)=CN2c1ccccc1
60 | > 300 | COc1ccc(-n2c(=O)c(Cl)nc3cccnc32)cc1
61 | 245 to 248 | CCn1c(=O)c(C(=O)O)c(N)c2cccnc21
62 | 124 to 125 | CC(=O)NC(=O)C(=O)c1ccccc1
63 | 134 to 137 | CN(C)C(=O)C(Nc1ccccc1)c1ccccc1 (centres undefined)
64 | 184 to 186 | Cc1nc2cc(NC(=O)Nc3cccc(C(F)(F)F)c3)ccc2o1
65 | 197 to 198 | COc1ccc(-c2cc(C=CC(=O)O)cs2)cc1C(C)(C)C
66 | 121 to 123 | O=C(NC/C=C\COc1cc(CN2CCCCC2)ccn1)c1cn[nH]c1
67 | > 250 | O=C(O)Cc1c(C(=O)c2ccc3c(c2)OCCO3)[nH]c2ccc(C(F)(F)F)cc12
68 | 185 | Cc1c(C(=O)Nc2ccc(N3CCN(CCN(C)C)CC3)c(C#N)c2)cnn1-c1ccc(F)cc1
69 | 62 to 65 | O=C1C=NC(c2cccs2)(C(F)(F)F)O1 (centres undefined)
70 | 220 to 222 | COc1cc2c(cc1-c1ccccc1F)NC(=O)CC(c1cccc(-n3ccnc3C)c1)=N2
71 | 83 to 85 | COC(=O)c1cccc2nc(SCCCN3CCCN(CC(=O)Nc4c(C(C)C)cccc4C(C)C)CC3)oc12
72 | 256 to 258 | CCOC(=O)c1cc2c([nH]c3ccccc32)c(CNc2ccccc2)n1

Row | melting point [°C] | SMILES
73 | 168 to 172 | CC(C)(C)c1ccccc1N1CCN(C(=O)C(=O)Nc2ccccn2)CC1
74 | 128 to 131 | CCCc1cc(NC(=O)c2c(C)nn(C)c2C)c(C)c(-c2cc(CCC)c(C(C(F)(F)F)C(F)(F)F)cc2C)c1
75 | 174 to 176 | COc1ccc(-c2ccc(C(=O)Nc3cc4ncc(CN5CCCC5)cc4cc3F)c(F)c2)cc1
76 | 228 to 229 | O=C(Nc1cccnn1)N1CCN(c2nccc(-c3c(F)cccc3F)n2)CC1
77 | 71 to 74 | CCCNC(=O)c1ccc(C=O)cc1
78 | 103 to 105 | CC1(C)Oc2ccc(S(=O)(=O)c3ccccc3)cc2[C@@H](O)[C@@H]1Br (relative stereo)
79 | > 300 | O=c1[nH]c2cc(-c3ccncc3)c(C(F)(F)F)nc2[nH]1
80 | 119 | COc1ccc(C(=O)CN2CCN(C(c3ccccc3)c3ccccc3)CC2)c(OC)c1OC
81 | 219 to 223 | CCCCc1nc2c(N)nc3ccc(O)cc3c2n1CCCCNS(=O)(=O)c1ccccc1
82 | 277 to 280 | O=C1Nc2cc(C(F)(F)F)ccc2C1c1ncnc2c1cnn2C1CCCCC1 (centres undefined)
83 | 122 | COC(=O)c1ccc(C2=N[C@H]3CCCC[C@H]3c3cc(OC)c(OC)cc32)cc1 (racemic)
84 | > 250 | CN1C(C)(C)CC(NC(=O)c2ccc(-c3nc4cc(Cl)c(Cl)cc4[nH]3)c(O)c2)CC1(C)C
85 | 168 to 169 | O=C(O)C1(c2ccc3c(c2)OCO3)CC(F)(F)C1(F)F (centres undefined)
86 | 218 to 220 | CC(O)(C(=O)O)c1ccc2c(c1)[nH]c1ccc(Cl)cc12 (centres undefined)
87 | 260 to 270 | Cc1c[nH]c(Nc2ccc(C3=NNC(=O)CC3C)cc2)nc1=O (centres undefined)
88 | 185 to 190 | CC(C)(C)C(=O)C(Cl)Oc1ccc(-c2ccccc2)cc1 (centres undefined)
89 | 109 to 111 | C#CCN1C(=O)C2(CCCC2)c2ccccc21
90 | 171 to 172 | CC(C)C(=O)c1cnc(C(CC2CCCC2)c2ccc(S(C)(=O)=O)cc2)[nH]1 (centres undefined)
91 | 262 | CC12C=CC(=O)C=C1CCC1C3CC4OCOC4(C(=O)CO)C3(C)CC(O)C12F (centres undefined)
92 | 174 | O=C(O)CCCc1cc2nc(Cl)ccc2n1S(=O)(=O)c1cccc(Cl)c1
93 | 131 | CCOC1=Cc2ccccc2N(C)c2ccc(Br)cc21

Row | SMILES | melting point [°C]
94 | CN1C(=O)CN=C(c2ccccc2F)c2c1ccc(NC(=O)NCCO)c2Cl | 150 to 153
95 | CC1(C)[C@H](C(=O)OCc2cnc(Cc3ccccc3)s2)[C@@H]1C=C(Br)Br | 66
96 | O=C1c2ccc([N+](=O)[O-])cc2C(=O)N1C1CCN(CCc2ccccc2)CC1 | 240 to 242
97 | CN1CCc2cccc3c4c(n(c23)CC1)CCSC4 | 123 to 125
98 | N#Cc1nn(-c2c(Cl)cc(C(F)(F)F)cc2Cl)cc1C#CBr | 166 to 168
99 | CN(C)C(=O)Oc1cccc2c1CC[C@H]1[C@H]2CCN1CCC1CCCCC1 | 110 to 112

From a melting point compilation (Tetko et al.; mined from patent text by program, amines drawn as free bases though some values may be those of a salt)
